Tests used:
[1] = target: Recombinant human serotonin receptor 5-HT1B (Homo sapiens, UniProt P28222); assay: GTPγS functional assay; type: biochemical; conditions: read-out: 5-HT1B agonism, EC50
[2] = target: T1, Recombinant human serotonin receptor 5-HT1A (Homo sapiens, UniProt P08908); assay: GTPγS functional assay; type: biochemical; conditions: in words
T1 sequence (P08908 1-422): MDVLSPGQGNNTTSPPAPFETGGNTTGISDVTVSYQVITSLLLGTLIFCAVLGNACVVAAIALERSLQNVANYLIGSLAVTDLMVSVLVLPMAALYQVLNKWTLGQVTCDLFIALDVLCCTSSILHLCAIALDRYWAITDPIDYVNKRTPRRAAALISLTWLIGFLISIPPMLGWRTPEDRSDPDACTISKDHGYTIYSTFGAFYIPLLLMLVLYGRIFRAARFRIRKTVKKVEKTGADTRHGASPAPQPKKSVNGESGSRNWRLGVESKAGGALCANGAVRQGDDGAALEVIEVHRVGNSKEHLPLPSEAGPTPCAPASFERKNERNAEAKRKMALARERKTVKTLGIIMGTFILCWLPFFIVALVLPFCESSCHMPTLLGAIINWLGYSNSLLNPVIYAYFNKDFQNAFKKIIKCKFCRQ

[3] = target: Recombinant human dopaminergic receptor D2L (Homo sapiens, UniProt P14416); assay: GTPγS functional assay; type: biochemical; conditions: in words
[4] = target: Recombinant human dopaminergic receptor D3 (Homo sapiens, UniProt P35462); assay: GTPγS functional assay; type: biochemical
[5] = target: T2, Recombinant human serotonin 5-HT2B receptor (Homo sapiens, UniProt P41595); assay: Aequorin assay, receptor agonist/antagonist activity, CHO-K1 cells; type: cell-based
T2 construct: expressed in transfected cells; host or cells: CHO-K1 cells co-expressing mitochondrial apoaequorin
Protocol: (§1) Compound 5A was synthesized as described above and assayed for receptor activity against a panel of dopaminergic and serotoninergic receptors. Recombinant human receptors serotonin 5-HT2A, 5-HT2B were expressed in CHO-K1 cells and activity (receptor agonist/antagonist activity) was assayed using an Aequorin assay (coexpression of mitochondrial apoaequorin) and Compound 5a at a concentration of 0.10 nM to 20,000 nM for agonist activity and 0.005 nM to 10,000 nM for antagonist activity. […]. The preserved 5-HT2B antagonism activity is hypothesized to a decrease or minimized occurrence of fibrosis (cardiac and non-cardiac) as it is thought that 5-HT2B agonism is responsible for this undesirable side-effect in other iso-ergoline compounds. […]. A decreased agonist activity towards the D3 receptor by Compound 5a is likely to produce minimal or decreased hallucinogenic effects. […].

[6] = target: T3, Recombinant human serotonin 5-HT2A receptor (Homo sapiens, UniProt P28223); assay: as above; type: cell-based
T3 construct: expressed in transfected cells; host or cells: CHO-K1 cells co-expressing mitochondrial apoaequorin
Protocol: as §1

[7] = target: Recombinant human serotonin receptor 5-HT1D (Homo sapiens, UniProt P28221); assay: GTPγS functional assay; type: biochemical
Recombinant human serotonin receptor 5-HT1D, sequence (P28221 whole entry): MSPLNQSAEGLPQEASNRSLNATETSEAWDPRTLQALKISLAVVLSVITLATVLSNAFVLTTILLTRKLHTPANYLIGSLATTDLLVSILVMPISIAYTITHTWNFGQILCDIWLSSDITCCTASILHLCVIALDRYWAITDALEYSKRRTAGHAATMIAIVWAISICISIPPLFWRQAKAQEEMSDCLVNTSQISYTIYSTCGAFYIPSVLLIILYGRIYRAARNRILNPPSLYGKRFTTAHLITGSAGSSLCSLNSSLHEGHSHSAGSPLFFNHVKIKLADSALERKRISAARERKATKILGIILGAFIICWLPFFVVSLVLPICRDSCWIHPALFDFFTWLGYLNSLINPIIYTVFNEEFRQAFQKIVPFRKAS

Recombinant human dopaminergic receptor D3, sequence (P35462 whole entry): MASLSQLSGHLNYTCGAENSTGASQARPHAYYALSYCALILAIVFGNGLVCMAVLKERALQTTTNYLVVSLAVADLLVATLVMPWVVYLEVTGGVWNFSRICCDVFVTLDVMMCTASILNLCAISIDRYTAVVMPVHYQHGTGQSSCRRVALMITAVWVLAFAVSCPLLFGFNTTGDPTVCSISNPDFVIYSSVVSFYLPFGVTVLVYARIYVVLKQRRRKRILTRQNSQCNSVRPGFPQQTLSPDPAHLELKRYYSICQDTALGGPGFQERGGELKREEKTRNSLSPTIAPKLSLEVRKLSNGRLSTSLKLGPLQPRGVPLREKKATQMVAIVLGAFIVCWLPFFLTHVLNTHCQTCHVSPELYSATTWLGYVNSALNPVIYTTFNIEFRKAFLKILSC
T2 sequence (P41595 whole entry): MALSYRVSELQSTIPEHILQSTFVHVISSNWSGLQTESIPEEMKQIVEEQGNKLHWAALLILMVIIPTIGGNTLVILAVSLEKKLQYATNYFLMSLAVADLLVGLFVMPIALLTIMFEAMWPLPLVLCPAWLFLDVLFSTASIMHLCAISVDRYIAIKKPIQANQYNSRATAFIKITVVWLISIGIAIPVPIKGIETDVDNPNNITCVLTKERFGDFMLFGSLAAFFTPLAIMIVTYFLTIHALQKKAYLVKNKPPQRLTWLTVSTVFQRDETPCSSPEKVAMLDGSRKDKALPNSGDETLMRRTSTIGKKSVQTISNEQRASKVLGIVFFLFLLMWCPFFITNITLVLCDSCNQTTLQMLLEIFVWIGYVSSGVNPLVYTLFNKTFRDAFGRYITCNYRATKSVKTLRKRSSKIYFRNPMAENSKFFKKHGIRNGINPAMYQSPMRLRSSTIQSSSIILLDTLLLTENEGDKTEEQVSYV
T3 sequence (P28223 whole entry): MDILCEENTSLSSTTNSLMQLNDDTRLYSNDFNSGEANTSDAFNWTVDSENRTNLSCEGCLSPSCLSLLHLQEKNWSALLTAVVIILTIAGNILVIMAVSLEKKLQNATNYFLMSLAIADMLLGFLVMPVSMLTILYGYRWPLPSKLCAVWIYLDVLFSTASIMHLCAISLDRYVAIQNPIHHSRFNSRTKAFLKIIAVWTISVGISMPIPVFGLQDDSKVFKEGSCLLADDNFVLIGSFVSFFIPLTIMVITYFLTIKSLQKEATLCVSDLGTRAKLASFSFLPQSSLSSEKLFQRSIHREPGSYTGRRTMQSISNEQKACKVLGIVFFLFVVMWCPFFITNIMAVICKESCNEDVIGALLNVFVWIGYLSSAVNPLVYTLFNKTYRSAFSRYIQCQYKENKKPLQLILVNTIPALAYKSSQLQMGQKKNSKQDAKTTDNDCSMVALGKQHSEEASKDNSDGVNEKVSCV
Recombinant human serotonin receptor 5-HT1B, sequence (P28222 whole entry): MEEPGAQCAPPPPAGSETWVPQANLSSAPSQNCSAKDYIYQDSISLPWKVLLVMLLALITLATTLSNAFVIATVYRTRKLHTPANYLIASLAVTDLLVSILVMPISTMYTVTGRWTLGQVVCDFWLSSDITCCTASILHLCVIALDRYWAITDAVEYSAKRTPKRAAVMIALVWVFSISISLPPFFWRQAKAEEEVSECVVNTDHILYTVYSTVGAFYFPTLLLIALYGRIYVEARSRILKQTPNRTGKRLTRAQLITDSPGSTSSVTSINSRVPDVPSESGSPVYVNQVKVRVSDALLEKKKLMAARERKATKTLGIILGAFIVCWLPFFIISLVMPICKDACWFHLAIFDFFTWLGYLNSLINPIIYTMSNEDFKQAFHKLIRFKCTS
Recombinant human dopaminergic receptor D2L, sequence (P14416 whole entry): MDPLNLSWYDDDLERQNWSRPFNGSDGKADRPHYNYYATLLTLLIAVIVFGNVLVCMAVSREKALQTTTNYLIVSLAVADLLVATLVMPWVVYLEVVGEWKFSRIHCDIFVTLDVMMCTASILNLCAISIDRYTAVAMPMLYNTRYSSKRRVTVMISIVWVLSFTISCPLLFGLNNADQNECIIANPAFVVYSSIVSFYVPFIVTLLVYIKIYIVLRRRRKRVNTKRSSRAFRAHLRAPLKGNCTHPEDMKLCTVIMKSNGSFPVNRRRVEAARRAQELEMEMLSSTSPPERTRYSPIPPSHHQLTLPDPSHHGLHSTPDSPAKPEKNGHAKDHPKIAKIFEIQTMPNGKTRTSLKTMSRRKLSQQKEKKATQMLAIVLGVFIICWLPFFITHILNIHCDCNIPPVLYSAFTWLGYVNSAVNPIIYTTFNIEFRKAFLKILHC

`CN1C[C@@H](NC(=O)N(CC(F)(F)F)CC(F)(F)F)C=C2c3cccc4[nH]cc(c34)C[C@H]21` [Compound 5A] was tested, and the EC50 [1] was 0.287 µM, the “agonistic activity towards the 5-HT1A receptor” value [2] was “weak/moderate agonistic activity” and the “D2L agonist activity (Emax) compared to lisuride” value [3] was “comparable D2L agonist activity (Emax)”. For the same compound, the EC50 ([4]; 0.005 nM to 10,000 nM, read-out: agonist activity towards the dopaminergic D3 receptor, EC50) was 0.027 µM, the “dopaminergic receptor D3 agonism” value ([4]; in words, compared to lisuride) was “weaker dopaminergic receptor D3agonism” and the IC50 ([5]; antagonist mode, 0.005 nM to 10,000 nM, read-out: 5-HT2B antagonism activity, 1050) was 0.19 µM. The 5-HT2B receptor activity ([5]; in words) was 5-HT2B antagonist, the EC50 ([6]; agonist mode, 0.10 nM to 20,000 nM) was 5.02 µM and the “5-HT2A receptor agonist activity” value ([6]; in words, compared to lisuride) was “weak 5-HT2A receptor agonist activity”. The “selectivity for 5-HT1D to 5-HT1B” value ([7]; ratio of EC50 values) was 20 fold and the EC50 ([7]; read-out: 5-HT1D agonism, EC50) was 0.015 µM.

Reference: patent US8946420B2, “Neuromodulatory compounds” (Map Pharmaceuticals, Inc., priority 2011, dated 2015)
